# Assay results reported in patent US20230271964A1, “5-AMINO-8-(4-PYRIDYL)-[1,2,4]TRIAZOLO[4,3-C]PYRIMIDIN-3-ONE COMPOUNDS FOR USE AGAINST CANCER” (ASTRAZENECA AB, priority 2020, published 2023).
# Experiments:
# [1] = target: human adenosine A1 receptor (Homo sapiens (Human), UniProt P30542); assay: Adenosine receptor inhibition binding assay, [3H]DPCPX, A1 receptor membranes; conditions: 1 nM [3H]DPCPX, 25° C., 1 h; Ki from IC50 by Cheng-Prusoff
# How it was run: (§1)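 Membranes from BacMam-transduced HEK293 cells (0.2 µg A2A; 1.4 µg A1) incubated 1 h at 25 °C with 1 nM radioligand; A2A in 50 mM Tris-HCl pH 7.4, A1 buffer adds 100 mM NaCl, 10 mM MgCl2. Nonspecific binding: 1 µM CGS 15943 (A2A) or 1 µM DPCPX (A1). Filtration, scintillation counting; IC50 converted to Ki via Cheng-Prusoff.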
# [2] = target: human adenosine A2A receptor (Homo sapiens (Human), UniProt P29274); assay: Adenosine receptor inhibition binding assay, [3H]ZM241385, HEK293 A2A receptor membranes; conditions: 1 nM [3H]ZM241385, HEK293-hA2A membranes, 25° C., 1 h; Ki from IC50 by Cheng-Prusoff
# human adenosine A2A receptor, sequence (P29274 whole entry): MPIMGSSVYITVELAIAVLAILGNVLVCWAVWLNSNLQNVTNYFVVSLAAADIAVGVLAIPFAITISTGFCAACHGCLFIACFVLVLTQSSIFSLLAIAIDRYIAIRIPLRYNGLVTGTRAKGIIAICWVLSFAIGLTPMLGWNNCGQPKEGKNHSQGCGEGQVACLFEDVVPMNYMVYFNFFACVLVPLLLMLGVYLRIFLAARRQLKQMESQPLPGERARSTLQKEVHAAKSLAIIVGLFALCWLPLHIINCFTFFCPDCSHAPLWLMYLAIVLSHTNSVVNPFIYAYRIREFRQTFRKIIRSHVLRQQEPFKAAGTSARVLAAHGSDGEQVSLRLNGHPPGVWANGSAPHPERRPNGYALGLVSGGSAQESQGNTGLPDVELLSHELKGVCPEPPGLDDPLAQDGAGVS
# How it was run: as §1
# human CB1 receptor = human CB1 receptor (Homo sapiens (Human), UniProt P21554); assay: CB1 receptor antagonism, agonist-induced cAMP modulation (HTRF) in transfected CHO cells; format: cell-based; conditions: read-out: Antag IC50
# human CB1 receptor, sequence (P21554 whole entry): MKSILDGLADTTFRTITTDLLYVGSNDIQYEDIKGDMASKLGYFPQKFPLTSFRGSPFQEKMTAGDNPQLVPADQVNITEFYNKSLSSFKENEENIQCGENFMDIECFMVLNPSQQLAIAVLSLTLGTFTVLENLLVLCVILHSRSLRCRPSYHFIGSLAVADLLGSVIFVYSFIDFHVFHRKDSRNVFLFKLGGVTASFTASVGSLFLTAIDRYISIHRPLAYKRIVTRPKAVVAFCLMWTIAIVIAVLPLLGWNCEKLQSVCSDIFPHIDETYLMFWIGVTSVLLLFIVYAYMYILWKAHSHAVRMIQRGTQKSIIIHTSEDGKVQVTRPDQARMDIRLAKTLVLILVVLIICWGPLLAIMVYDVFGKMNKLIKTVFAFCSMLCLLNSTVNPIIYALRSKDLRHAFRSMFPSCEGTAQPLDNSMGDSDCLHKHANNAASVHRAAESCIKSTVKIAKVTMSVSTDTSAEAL
# Experimental: Receptor antagonism: Evaluation of the antagonist activity of compounds at the human CB1 receptor expressed in transfected CHO cells, determined by measuring their effects on agonist-induced cAMP modulation using the HTRF detection method.
# Thereafter, the reference agonist CP 55940 and the adenylyl cyclase activator NKH 477 are added at respective final concentrations of 3 nM and 3 µM.
# For basal control measurements, CP 55940 is omitted from the wells containing 3 µM AM 281.
# Following 20 min incubation at 37° C., the cells are lysed and the fluorescence acceptor (D2-labeled cAMP) and fluorescence donor (anti-cAMP antibody labeled with europium cryptate) are added.
# After 60 min at room temperature, the fluorescence transfer is measured at λex=337 nm and λem=620 and 665 nm using a microplate reader (Rubystar, BMG). The cAMP concentration is determined by dividing the signal measured at 665 nm by that measured at 620 nm (ratio).
# The standard reference antagonist is AM 281, which is tested in each experiment at several concentrations to generate a concentration-response curve from which its IC50 value is calculated.
# human adenosine A1 receptor, sequence (P30542 whole entry): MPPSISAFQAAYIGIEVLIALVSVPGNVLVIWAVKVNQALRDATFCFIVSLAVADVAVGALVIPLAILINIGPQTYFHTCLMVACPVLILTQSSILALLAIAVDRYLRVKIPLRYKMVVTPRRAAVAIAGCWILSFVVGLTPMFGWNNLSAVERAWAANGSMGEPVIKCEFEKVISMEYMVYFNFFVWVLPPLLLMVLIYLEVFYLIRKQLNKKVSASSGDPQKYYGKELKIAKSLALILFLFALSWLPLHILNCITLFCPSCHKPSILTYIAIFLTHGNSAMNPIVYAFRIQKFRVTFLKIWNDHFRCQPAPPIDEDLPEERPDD
A1 pKi [1],A2A pKi [2],IC50 (human CB1 receptor),SMILES
6.4,9.3,> 100 µM,"Cc1cc(-c2c(-c3ccccc3)nc(N)n3c(=O)n(C[C@H]4CCCO4)nc23)cc(CO)n1 [Example 2-29, 5-amino-8-[2-(hydroxymethyl)-6-methyl-4-pyridyl]-7-phenyl-2-[[(2R)-tetrahydrofuran-2-yl]methyl]-[1,2,4]triazolo[4,3-c]pyrimidin-3-one]"
6.8,9.5,> 100 µM,"COc1cc(-c2c(-c3ccccc3)nc(N)n3c(=O)n(Cc4nccn4C)nc23)cc(CO)n1 [Example 1-61, 5-amino-8-[2-(hydroxymethyl)-6-methoxy-4-pyridyl]-2-[(1-methylimidazol-2-yl)methyl]-7-phenyl-[1,2,4]triazolo[4,3-c]pyrimidin-3-one]"
7.4,8.4,> 100 µM,"Cc1nc(Cn2nc3c(-c4cc(C)[n+]([O-])c(C)c4)c(-c4ccc(F)cc4)nc(N)n3c2=O)c(C)o1 [Example 1-35, 5-amino-2-[(2,5-dimethyloxazol-4-yl)methyl]-8-(2,6-dimethyl-1-oxido-pyridin-1-ium-4-yl)-7-(4-fluorophenyl)-[1,2,4]triazolo[4,3-c]pyrimidin-3-one]"
7.3,8.0,> 100 µM,"Cc1cc(-c2c(-c3ccccc3)nc(N)n3c(=O)n(Cc4nccn4C)nc23)cc(C)[n+]1[O-] [Example 1-36, 5-amino-8-(2,6-dimethyl-1-oxido-pyridin-1-ium-4-yl)-2-[(1-methylimidazol-2-yl)methyl]-7-phenyl-[1,2,4]triazolo[4,3-c]pyrimidin-3-one]"
7.5,9.7,> 100 µM,"Cc1ocnc1Cn1nc2c(-c3cc(CO)nc(C(F)(F)F)c3)c(-c3ccccc3)nc(N)n2c1=O [Example 1-66, 5-amino-8-[2-(hydroxymethyl)-6-(trifluoromethyl)-4-pyridyl]-2-[(5-methyloxazol-4-yl)methyl]-7-phenyl-[1,2,4]triazolo[4,3-c]pyrimidin-3-one]"
6.8,8.8,> 100 µM,"Cc1ocnc1Cn1nc2c(-c3cc(C)[n+]([O-])c(C)c3)c(-c3ccc(F)cc3)nc(N)n2c1=O [Example 1-37, 5-amino-8-(2,6-dimethyl-1-oxido-pyridin-1-ium-4-yl)-7-(4-fluorophenyl)-2-[(5-methyloxazol-4-yl)methyl]-[1,2,4]triazolo[4,3-c]pyrimidin-3-one]"
7.5,9.4,> 100 µM,"Cn1ccnc1Cn1nc2c(-c3cc(Cl)nc(CO)c3)c(-c3ccccc3)nc(N)n2c1=O [Example 1-55, 5-amino-8-[2-chloro-6-(hydroxymethyl)-4-pyridyl]-2-[(1-methylimidazol-2-yl)methyl]-7-phenyl-[1,2,4]triazolo[4,3-c]pyrimidin-3-one]"
6.7,8.6,> 100 µM,"Cc1cc(-c2c(-c3ccc(F)cc3)nc(N)n3c(=O)n(Cc4ccn(C)n4)nc23)cc(CO)n1 [Example 1-52, 5-amino-7-(4-fluorophenyl)-8-[2-(hydroxymethyl)-6-methyl-4-pyridyl]-2-[(1-methylpyrazol-3-yl)methyl]-[1,2,4]triazolo[4,3-c]pyrimidin-3-one]"
8.0,10.0,> 100 µM,"Cn1ccnc1Cn1nc2c(-c3cc(CO)nc(C(F)(F)F)c3)c(-c3ccccc3)nc(N)n2c1=O [Example 1-67, 5-amino-8-[2-(hydroxymethyl)-6-(trifluoromethyl)-4-pyridyl]-2-[(1-methylimidazol-2-yl)methyl]-7-phenyl-[1,2,4]triazolo[4,3-c]pyrimidin-3-one]"
6.6,9.6,> 100 µM,"Nc1nc(-c2ccccc2)c(-c2cc(Cl)nc(CO)c2)c2nn(C[C@H]3CCCO3)c(=O)n12 [Example 2-32, 5-amino-8-[2-chloro-6-(hydroxymethyl)-4-pyridyl]-7-phenyl-2-[[(2R)-tetrahydrofuran-2-yl]methyl]-[1,2,4]triazolo[4,3-c]pyrimidin-3-one]"
6.3,8.9,> 100 µM,"Nc1nc(-c2ccccc2)c(-c2cc(CO)nc(C(F)(F)F)c2)c2nn(C[C@H]3CCCO3)c(=O)n12 [Example 2-38, 5-amino-8-[2-(hydroxymethyl)-6-(trifluoromethyl)-4-pyridyl]-7-phenyl-2-[[(2R)-tetrahydrofuran-2-yl]methyl]-[1,2,4]triazolo[4,3-c]pyrimidin-3-one]"
5.7,7.5,> 100 µM,"Cc1cc(-c2c(-c3ccccc3)nc(N)n3c(=O)n(C(CN)C4CCOC4)nc23)cc(C)n1 (stereo not drawn) [Example 2-15, 5-amino-2-(2-amino-1-tetrahydrofuran-3-yl-ethyl)-8-(2,6-dimethyl-4-pyridyl)-7-phenyl-[1,2,4]triazolo[4,3-c]pyrimidin-3-one]"
<5.4,7.2,> 100 µM,"Cc1cc(-c2c(-c3ccccc3)nc(N)n3c(=O)n(CCc4nnnn4C)nc23)cc(C)n1 [Example 1-5, 5-amino-8-(2,6-dimethyl-4-pyridyl)-2-[2-(1-methyltetrazol-5-yl)ethyl]-7-phenyl-[1,2,4]triazolo[4,3-c]pyrimidin-3-one]"
6.4,8.2,–,"Cc1cc(-c2c(-c3ccccc3)nc(N)n3c(=O)n(C[C@H]4C[C@H](F)CN4)nc23)cc(C)n1 [Example 2-18, 5-amino-8-(2,6-dimethyl-4-pyridyl)-2-[[(2R,4S)-4-fluoropyrrolidin-2-yl]methyl]-7-phenyl-[1,2,4]triazolo[4,3-c]pyrimidin-3-one]"
6.3,8.2,–,"Cc1cc(-c2c(-c3ccccc3)nc(N)n3c(=O)n(C[C@@H]4CC(F)(F)CN4C)nc23)cc(C)n1 [Example 2-13, 5-amino-2-[[(2S)-4,4-difluoro-1-methyl-pyrrolidin-2-yl]methyl]-8-(2,6-dimethyl-4-pyridyl)-7-phenyl-[1,2,4]triazolo[4,3-c]pyrimidin-3-one]"
5.6,6.9,–,"Cc1cc(-c2c(-c3ccccc3)nc(N)n3c(=O)n(CCNC4CCN(C(=O)c5cccnc5)C4)nc23)cc(C)n1 (stereo not drawn) [Example 3-2, 5-amino-8-(2,6-dimethyl-4-pyridyl)-7-phenyl-2-[2-[[1-(pyridine-3-carbonyl)pyrrolidin-3-yl]amino]ethyl]-[1,2,4]triazolo[4,3-c]pyrimidin-3-one]"
6.1,8.4,–,"Cc1cc(-c2c(-c3ccc(F)cc3)nc(N)n3c(=O)n(C[C@H]4CCCO4)nc23)cc(CO)n1 [Example 2-31, 5-amino-7-(4-fluorophenyl)-8-[2-(hydroxymethyl)-6-methyl-4-pyridyl]-2-[[(2R)-tetrahydrofuran-2-yl]methyl]-[1,2,4]triazolo[4,3-c]pyrimidin-3-one]"
7.2,9.7,–,"Cc1ocnc1Cn1nc2c(-c3cc(Cl)nc(CO)c3)c(-c3ccccc3)nc(N)n2c1=O [Example 1-54, 5-amino-8-[2-chloro-6-(hydroxymethyl)-4-pyridyl]-2-[(5-methyloxazol-4-yl)methyl]-7-phenyl-[1,2,4]triazolo[4,3-c]pyrimidin-3-one]"
6.8,9.2,–,"Cc1cc(-c2c(-c3ccccc3)nc(N)n3c(=O)n(Cc4cocn4)nc23)cc(C)n1 [Example 1-10, 5-amino-8-(2,6-dimethyl-4-pyridyl)-2-(oxazol-4-ylmethyl)-7-phenyl-[1,2,4]triazolo[4,3-c]pyrimidin-3-one]"
6.6,8.1,–,"Cc1cc(-c2c(-c3ccccc3)nc(N)n3c(=O)n(Cc4nnco4)nc23)cc(C)n1 [Example 1-27, 5-amino-8-(2,6-dimethyl-4-pyridyl)-2-(1,3,4-oxadiazol-2-ylmethyl)-7-phenyl-[1,2,4]triazolo[4,3-c]pyrimidin-3-one]"
6.7,9.2,–,"Cc1cc(-c2c(-c3ccccc3)nc(N)n3c(=O)n(C[C@H]4CCCO4)nc23)cc(C)n1 [Example 2-16, 5-amino-8-(2,6-dimethyl-4-pyridyl)-7-phenyl-2-[[(2R)-tetrahydrofuran-2-yl]methyl]-[1,2,4]triazolo[4,3-c]pyrimidin-3-one]"
6.2,8.2,–,"Cc1cc(-c2c(-c3ccccc3)nc(N)n3c(=O)n(Cc4nnc(C)o4)nc23)cc(C)n1 [Example 1-17, 5-amino-8-(2,6-dimethyl-4-pyridyl)-2-[(5-methyl-1,3,4-oxadiazol-2-yl)methyl]-7-phenyl-[1,2,4]triazolo[4,3-c]pyrimidin-3-one]"
